From ChEMBL document CHEMBL3860081, “Design, synthesis and biological evaluation of lapachol derivatives possessing indole scaffolds as topoisomerase I inhibitors” (Bioorg Med Chem, 2016)
Activity calls are given as the source filed them. The calls are words filed in the database; no cut-off is given here.

Tests used:
[1] = molecular target: T1, DNA topoisomerase 1 (Homo sapiens) (UniProt P11387); experiment: Inhibition of DNA topoisomerase-1 (unknown origin)-mediated supercoiled pBR322 DNA relaxation at 5 uM after 30 mins by agarose gel electrophoresis
T1 sequence (whole entry): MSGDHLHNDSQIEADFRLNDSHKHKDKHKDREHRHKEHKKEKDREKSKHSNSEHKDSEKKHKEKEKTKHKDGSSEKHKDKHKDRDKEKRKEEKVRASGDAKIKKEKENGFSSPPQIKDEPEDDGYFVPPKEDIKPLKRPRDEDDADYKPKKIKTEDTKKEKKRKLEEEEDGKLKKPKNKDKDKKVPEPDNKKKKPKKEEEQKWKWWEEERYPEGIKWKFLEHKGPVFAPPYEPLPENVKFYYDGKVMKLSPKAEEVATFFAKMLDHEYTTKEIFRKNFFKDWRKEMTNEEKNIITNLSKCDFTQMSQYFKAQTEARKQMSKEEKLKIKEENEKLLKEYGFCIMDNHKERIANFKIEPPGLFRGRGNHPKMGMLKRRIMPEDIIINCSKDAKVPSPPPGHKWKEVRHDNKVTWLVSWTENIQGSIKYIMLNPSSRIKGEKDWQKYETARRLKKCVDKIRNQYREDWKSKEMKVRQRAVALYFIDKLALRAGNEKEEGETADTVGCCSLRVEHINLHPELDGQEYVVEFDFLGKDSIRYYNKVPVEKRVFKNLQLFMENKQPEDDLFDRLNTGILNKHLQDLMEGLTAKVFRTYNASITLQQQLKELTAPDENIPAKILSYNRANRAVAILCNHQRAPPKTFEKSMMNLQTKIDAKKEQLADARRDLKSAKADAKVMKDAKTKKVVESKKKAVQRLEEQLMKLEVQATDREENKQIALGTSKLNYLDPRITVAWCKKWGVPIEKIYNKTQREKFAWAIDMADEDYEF

HeLa [2] = experiment: Induction of apoptosis in human HeLa cells assessed as chromatin fragmentation at IC50 after 48 hrs by Hoechst 33342 staining-based fluorescence microscopic method; type: functional, cell-based
HeLa [3] = experiment: Induction of apoptosis in human HeLa cells assessed as chromatin condensation at IC50 after 48 hrs by Hoechst 33342 staining-based fluorescence microscopic method; type: functional, cell-based
[4] = Cytotoxicity against human HeLa cells assessed as decrease in cell proliferation after 48 hrs by MTT assay; type: functional, cell-based
[5] = Cytotoxicity against HEEC assessed as decrease in cell proliferation after 48 hrs by MTT assay; type: toxicity; conditions: human, HEEC cells
[6] = Cytotoxicity against human ECA109 cells assessed as decrease in cell proliferation after 48 hrs by MTT assay; type: functional, cell-based; conditions: ECa-109, 48 h
[7] = molecular target: T1, DNA topoisomerase 1 (Homo sapiens); experiment: Inhibition of DNA topoisomerase-1 (unknown origin)-mediated supercoiled pBR322 DNA relaxation at 25 uM after 30 mins by agarose gel electrophoresis
[8] = molecular target: T1, DNA topoisomerase 1 (Homo sapiens); experiment: Inhibition of DNA topoisomerase-1 (unknown origin)-mediated supercoiled pBR322 DNA relaxation at 100 uM after 30 mins by agarose gel electrophoresis

| Compound | inhibition [1] | Activity (HeLa [2]) | Activity (HeLa [3]) | IC50 [4] [µM] | IC50 at 48 h [5] [µM] | IC50 [6] [µM] | inhibition [7] | inhibition [8] |
| --- | --- | --- | --- | --- | --- | --- | --- | --- |
| O=C1C(O)=C(C(c2ccc([N+](=O)[O-])cc2)c2c(-c3ccccc3)[nH]c3ccccc23)C(=O)c2ccccc21 (stereo not given) | Active | Active | Active | 6.77 | 14.2 | 5.08 |  |  |
| COc1cccc(C(C2=C(O)C(=O)c3ccccc3C2=O)c2c[nH]c3ccccc23)c1 (stereo not given) |  |  |  | 25.6 | 110 | 40 |  |  |
| COc1ccc(C(C2=C(O)C(=O)c3ccccc3C2=O)c2c[nH]c3ccccc23)cc1Br (stereo not given) |  |  |  | 7.32 | 25.2 | 11.8 | Active |  |
| O=C1C(O)=C(C(c2ccc(Cl)cc2)c2c[nH]c3ccccc23)C(=O)c2ccccc21 (stereo not given) |  |  |  | 37 | 102 | 45.8 |  |  |
| O=C1C(O)=C(C(c2ccc([N+](=O)[O-])cc2)c2c[nH]c3ccc(Br)cc23)C(=O)c2ccccc21 (stereo not given) |  |  |  | 14.1 | 45.2 | 16.9 |  |  |
| CC[C@@]1(O)C(=O)OCc2c1cc1n(c2=O)Cc2cc3ccccc3nc2-1 [CAMPTOTHECIN] |  |  |  | 11.4 | 17.7 | 9.52 |  |  |
| Cc1[nH]c2ccccc2c1C(C1=C(O)C(=O)c2ccccc2C1=O)c1ccc([N+](=O)[O-])cc1 (stereo not given) |  | Active | Active | 4.57 | 15.1 | 6 | Active |  |
| O=C1C(O)=C(C(c2ccc([N+](=O)[O-])cc2)c2c[nH]c3ccccc23)C(=O)c2ccccc21 (stereo not given) |  |  |  | 14.8 | > 200 | 60.9 |  |  |
| Cc1[nH]c2ccccc2c1C(C1=C(O)C(=O)c2ccccc2C1=O)c1ccc(Cl)cc1 (stereo not given) |  |  |  | 8.03 | 40.2 | 14.3 |  |  |
| O=C1C(O)=C(C(c2cccc([N+](=O)[O-])c2)c2c[nH]c3ccccc23)C(=O)c2ccccc21 (stereo not given) |  |  |  | 24.9 | 91.2 | 36.1 |  |  |
| COc1ccccc1C(C1=C(O)C(=O)c2ccccc2C1=O)c1c[nH]c2ccccc12 (stereo not given) |  |  |  | 128 | > 200 | > 200 |  |  |
| O=C1C(O)=C(C(c2ccccc2)c2c(-c3ccccc3)[nH]c3ccccc23)C(=O)c2ccccc21 (stereo not given) |  |  |  | 18.8 | 26.4 | 5.18 |  |  |
| O=C1C(O)=C(C(c2ccc(F)cc2)c2c[nH]c3ccccc23)C(=O)c2ccccc21 (stereo not given) |  |  |  | 15.8 | 65.2 | 28.1 |  |  |
| COc1cc(C(C2=C(O)C(=O)c3ccccc3C2=O)c2c[nH]c3ccc(Br)cc23)cc(OC)c1OC (stereo not given) |  |  |  | 9.71 | 36.3 | 13 |  | Active |
| O=C1C(O)=C(C(c2cccs2)c2c[nH]c3ccccc23)C(=O)c2ccccc21 (stereo not given) |  |  |  | 12.4 | 31.2 | 12.1 |  |  |
| CC(C)=CCC1=C(O)C(=O)c2ccccc2C1=O [LAPACHOL] |  |  |  | 20.4 | 20.2 | 12.6 |  |  |
| O=C1C(O)=C(C(c2cccc([N+](=O)[O-])c2)c2c(-c3ccccc3)[nH]c3ccccc23)C(=O)c2ccccc21 (stereo not given) |  |  |  | 12.5 | 13.4 | 5.83 | Active |  |
